Experimental data reported in PubChem BioAssay (NCI).
“And” between values parts separate entries of the source, which are not always exact repeats. Equal values may be shown once.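 Step 1: Grow cells in 96-well plates. Step 2: Expose to compound for 48 hours at 5 concentrations. Step 3: Interpolate endpoints linearly; if unreached, use highest concentration. Here, GI50 denotes the concentration required for 50% inhibition of growth. TGI is the concentration that stops growth completely.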

Columns and labels:
Assay in all cases: growth of human tumour cells (NCI), 48 h
[1] = test system: K-562 leukemia
[2] = test system: OVCAR-3 ovarian
[3] = test system: U251 CNS
[4] = test system: HCT-116 colon
[5] = test system: MDA-N
[6] = test system: COLO 205 colon
[7] = test system: LOX IMVI melanoma
[8] = test system: CCRF-CEM leukemia
[9] = test system: UACC-257 melanoma
[10] = test system: PC-3 prostate

For `COc1cc(OC2OC(COC(=O)c3cc(O)c(O)c(O)c3)C(O)C(O)C2O)ccc1O` (stereo unspecified), the TGI [1] was over 100 µM, the TGI [2] was over 100 µM and the TGI [3] was over 100 µM. It also gave a TGI [4] of over 100 µM, a TGI [5] of over 100 µM and a TGI [6] of over 100 µM. It also gave a TGI [7] of over 100 µM, a TGI [8] of over 100 µM and a TGI [9] of over 100 µM. It also gave a TGI [10] of 81.9 µM.
Molecule `CC(=O)N(C(C)=O)n1c(Cc2ccc(C)cc2)nn(C(C)=O)c1=O` has a TGI [1] of over 100 µM, a TGI [2] of over 100 µM and a TGI [3] of over 100 µM. For the same molecule, the TGI [4] was over 100 µM, the TGI [5] was over 100 µM and the TGI [6] was over 100 µM. The TGI [7] was over 100 µM, the TGI [8] was over 100 µM and the TGI [9] was over 100 µM. It also gave a TGI [10] of over 100 µM.
`CCOC(=O)C(NC(=O)CC)(Nc1ccc(F)c(Cl)c1)C(F)(F)F` (stereo unspecified) showed a TGI [1] of over 100 µM, a TGI [2] of over 100 µM and a TGI [3] of over 100 µM. For the same molecule, the TGI [4] was over 100 µM, the TGI [5] was over 100 µM and the TGI [6] was over 100 µM. It also gave a TGI [7] of over 100 µM, a TGI [8] of over 100 µM and a TGI [9] of over 100 µM. For the same molecule, the TGI [10] was over 100 µM.
`O=C1CS[C@@](CC(c2ccc(Cl)cc2)c2ccc(Cl)cc2)(c2ccc(Cl)cc2)N1` gave a TGI [1] of over 100 µM, a TGI [2] of 38 µM and a TGI [3] of 63.1 µM. The TGI [4] was over 100 µM, the TGI [5] was over 100 µM and the TGI [6] was 17.9 µM. For the same molecule, the TGI [7] was 65.4 µM, the TGI [8] was over 100 µM and the TGI [9] was over 100 µM. For the same molecule, the TGI [10] was 65.5 µM.
`COc1ccc(N=C2C(=Nc3ccc(OC)cc3)N(c3ccc(N(C)C)cc3)C(=S)N2c2ccc(OC)cc2)cc1` gave a TGI [1] of over 100 µM, a TGI [2] of over 100 µM and a TGI [3] of over 100 µM. It also gave a TGI [4] of over 100 µM, a TGI [5] of over 100 µM and a TGI [6] of over 100 µM. It also gave a TGI [7] of over 100 µM, a TGI [8] of over 100 µM and a TGI [9] of over 58.1 µM. The TGI [10] was over 100 µM.
Molecule `CCCC(=O)NC(Nc1ccc(F)cc1)(C(F)(F)F)C(F)(F)F` has a TGI [1] of over 100 µM, a TGI [2] of over 100 µM and a TGI [3] of over 100 µM. It also gave a TGI [4] of over 100 µM, a TGI [5] of over 100 µM and a TGI [6] of over 92.8 µM. For the same molecule, the TGI [7] was over 100 µM, the TGI [8] was over 26.7 µM and the TGI [9] was over 100 µM. The TGI [10] was over 100 µM.
For `O=C1/C(=C/c2ccccc2)NC(=S)N1CN1CCCCC1`, the TGI [1] was over 100 µM, the TGI [2] was over 100 µM and the TGI [3] was over 100 µM. For the same molecule, the TGI [4] was over 100 µM, the TGI [5] was over 100 µM and the TGI [6] was over 100 µM. For the same molecule, the TGI [7] was over 100 µM, the TGI [8] was over 100 µM and the TGI [9] was over 100 µM. The TGI [10] was over 100 µM.
Work on `CNC(=S)NNc1ncnc2c1ncn2-c1ccc(C)cc1` yielded a TGI [1] of over 100 µM, a TGI [2] of over 100 µM and a TGI [3] of over 100 µM. The TGI [4] was over 100 µM, the TGI [5] was over 100 µM and the TGI [6] was over 100 µM. For the same molecule, the TGI [7] was over 100 µM, the TGI [8] was over 100 µM and the TGI [9] was over 100 µM. For the same molecule, the TGI [10] was over 100 µM.
Molecule `COc1c2ccsc2c(OC)c2ccsc12` has a TGI [1] of over 100 µM, a TGI [2] of over 100 µM and a TGI [3] of over 100 µM. It also gave a TGI [4] of over 100 µM, a TGI [5] of over 100 µM and a TGI [6] of over 100 µM. The TGI [7] was over 100 µM, the TGI [8] was over 100 µM and the TGI [9] was over 100 µM. The TGI [10] was over 100 µM.
For `Cc1ccc(S(=O)(=O)N/N=C2/CCC(C(C)(C)C)CC2Br)cc1` (stereo unspecified), the TGI [1] was 40.1 µM, the TGI [2] was 48.9 µM and the TGI [3] was 21.1 µM. For the same molecule, the TGI [4] was 51.5 µM, the TGI [5] was over 100 µM and the TGI [6] was over 100 µM. The TGI [7] was 30.5 µM, the TGI [8] was 64.2 µM and the TGI [9] was over 100 µM. It also gave a TGI [10] of 86.5 µM.
Work on `O=[N+]([O-])c1cccc(Cl)c1Oc1ccc(S(=O)(=O)/N=C(\NO)Nc2ccc(Cl)cc2)cc1` yielded a TGI [1] of 33.3 µM, a TGI [2] of 22.6 µM and a TGI [3] of 27.5 µM. The TGI [4] was 25 µM, the TGI [5] was 26 µM and the TGI [6] was 31 µM. It also gave a TGI [7] of 32.7 µM, a TGI [8] of 29.7 µM and a TGI [9] of 26 µM. The TGI [10] was 24.2 µM.
Molecule `NC(=Nc1ccccc1)c1ccccc1N` has a TGI [1] of over 100 µM, a TGI [2] of over 100 µM and a TGI [3] of over 100 µM. For the same molecule, the TGI [4] was over 100 µM, the TGI [5] was over 100 µM and the TGI [6] was over 100 µM. For the same molecule, the TGI [7] was over 100 µM, the TGI [8] was over 100 µM and the TGI [9] was over 100 µM. The TGI [10] was over 100 µM.
`Cc1c(O)c(OC2OC(CO)C(O)C(O)C2O)cc2c1C=C[C@@H]1[C@@]2(C)C(=O)C[C@]2(C)[C@@H]([C@@](C)(O)C(=O)CCC(C)(C)O)[C@H](O)C[C@@]12C` (stereo partly specified) was tested, and the TGI [1] was over 100 µM, the TGI [2] was 46.9 µM and the TGI [3] was 43.2 µM. It also gave a TGI [4] of 37.8 µM, a TGI [5] of 77.5 µM and a TGI [6] of over 100 µM. The TGI [7] was 59.2 µM, the TGI [8] was over 100 µM and the TGI [9] was 47.2 µM. It also gave a TGI [10] of 44.5 µM.
Work on `Cc1cc(N(CCC#N)CCC#N)ccc1/C=C1\SC(=S)NC1=O` yielded a TGI [1] of over 100 µM, a TGI [2] of over 100 µM and a TGI [3] of over 100 µM. For the same molecule, the TGI [4] was over 100 µM, the TGI [5] was over 100 µM and the TGI [6] was over 100 µM. For the same molecule, the TGI [7] was over 100 µM, the TGI [8] was over 100 µM and the TGI [9] was over 100 µM. For the same molecule, the TGI [10] was over 100 µM.
`CN(C)CC1CCC/C(=C\c2ccc(OC(=O)/C=C/c3ccc(Cl)c(Cl)c3)cc2)C1=O` (stereo unspecified) was tested, and the TGI [1] was over 100 µM, the TGI [2] was 14.6 µM and the TGI [3] was 27.9 µM. It also gave a TGI [4] of 14.5 µM, a TGI [5] of 12.1 µM and a TGI [6] of 3.93 µM. For the same molecule, the TGI [7] was 4.01 µM, the TGI [8] was 1.77 µM and the TGI [9] was 40.4 µM. The TGI [10] was 13.2 µM.
For `CC(=O)NC1(C(=O)N[C@@H](Cc2ccccc2)C(=O)NC2CCCCC2)Cc2ccc3ccccc3c2-c2c(ccc3ccccc23)C1`, the GI50 [1] was 2.7 µM and 7.67 µM, the TGI [1] was over 100 µM and the GI50 [2] was 2.91 µM and 7.77 µM. It also gave a TGI [2] of over 100 µM, a TGI [3] of over 100 µM and a TGI [4] of over 100 µM. The GI50 [5] was 5.39 µM and 15.2 µM, the TGI [5] was over 100 µM and the GI50 [6] was 2.2 µM and 5.01 µM. For the same molecule, the TGI [6] was 4.44 µM and 15.9 µM, the TGI [7] was over 100 µM and the TGI [8] was > 100 µM and 40.3 µM. For the same molecule, the GI50 [9] was 2 µM and 5.32 µM, the TGI [9] was 10.8 µM and 75.5 µM and the GI50 [10] was 2.87 µM and 6.4 µM. The TGI [10] was over 100 µM.
In the case of `COC(=O)c1cccc(OC)c1C#Cc1c(OC)cccc1OC`, the TGI [1] is reported as over 100 µM, the TGI [2] is reported as over 100 µM and the TGI [3] is reported as over 100 µM. The TGI [4] was over 100 µM, the TGI [5] was over 100 µM and the TGI [6] was over 100 µM. The TGI [7] was over 100 µM, the TGI [8] was over 100 µM and the TGI [9] was over 100 µM. For the same molecule, the TGI [10] was over 100 µM.
`CCN(CC)CCOC(=O)Cc1cccc2c(=O)cc(-c3ccccc3)oc12` was tested, and the GI50 [1] was 406 µM, the GI50 [2] was over 43.4 µM and the TGI [2] was 62.5 µM and > 76.3 µM. The GI50 [3] was 57.9 µM, the TGI [3] was 62.5 µM and > 121 µM and the GI50 [4] was 85.1 µM. The TGI [4] was 62.5 µM and > 153 µM, the TGI [5] was 62.5 µM and the GI50 [6] was 439 µM. The GI50 [7] was 45.3 µM, the TGI [7] was 35.1 µM and > 240 µM and the GI50 [8] was 336 µM. The GI50 [9] was 67 µM, the TGI [9] was 62.5 µM and > 154 µM and the TGI [10] was 62.5 µM.
With `COC(=O)NC(Cc1ccccc1)NC(C)=O` (stereo unspecified) the TGI [1] was over 100 µM, the TGI [2] was over 100 µM and the TGI [3] was over 100 µM. It also gave a TGI [4] of over 100 µM, a TGI [5] of over 100 µM and a TGI [6] of over 100 µM. For the same molecule, the TGI [7] was over 100 µM, the TGI [8] was over 100 µM and the TGI [9] was over 100 µM. It also gave a TGI [10] of over 100 µM.
Work on `Cc1ccc(S(=O)(=O)n2ccc(-c3ccc4ccn(S(=O)(=O)c5ccc(C)cc5)c4c3)c2)cc1` yielded a TGI [1] of over 100 µM, a TGI [2] of over 100 µM and a TGI [3] of over 100 µM. For the same molecule, the TGI [4] was over 100 µM, the TGI [5] was over 100 µM and the TGI [6] was over 100 µM. The TGI [7] was over 100 µM, the TGI [8] was over 100 µM and the TGI [9] was over 100 µM. It also gave a TGI [10] of over 100 µM.
`COP(=O)(O)C(N)Cc1c[nH]c2ccccc12` (stereo unspecified) was tested, and the TGI [1] was over 100 µM, the TGI [2] was over 100 µM and the TGI [3] was over 100 µM. For the same molecule, the TGI [4] was over 100 µM, the TGI [5] was over 100 µM and the TGI [6] was over 100 µM. For the same molecule, the TGI [7] was over 100 µM, the TGI [8] was over 100 µM and the TGI [9] was over 100 µM. It also gave a TGI [10] of over 100 µM.
For `Cc1cc(N2CCCC2)c([N+](=O)[O-])cc1[N+](=O)[O-]`, the TGI [1] was over 100 µM, the TGI [2] was over 100 µM and the TGI [3] was over 100 µM. It also gave a TGI [4] of over 100 µM, a TGI [5] of over 100 µM and a TGI [6] of over 100 µM. It also gave a TGI [7] of over 100 µM, a TGI [8] of over 100 µM and a TGI [9] of over 100 µM. For the same molecule, the TGI [10] was over 100 µM.
With `COC(=O)C1=CON2C3CC4CC(C3)CC(C4)C12C` (stereo unspecified) the TGI [1] was over 100 µM, the TGI [2] was over 100 µM and the TGI [3] was over 100 µM. It also gave a TGI [4] of over 100 µM, a TGI [5] of over 100 µM and a TGI [6] of over 100 µM. It also gave a TGI [7] of over 100 µM, a TGI [8] of over 100 µM and a TGI [9] of over 100 µM. The TGI [10] was over 100 µM.
